Entries after “also recorded” stand apart in the source; their conditions may differ.
What was measured:
CB2 = CB2 (Homo sapiens (Human), UniProt P34972); experiment: CB2 Binding Assay ([3H]WIN 55212-2, cell membrane homogenates)
Method: Cell membrane homogenates (15 μg protein) were incubated for 120 min at 37° C. with 0.8 nM [3H]WIN 55212-2 (the reference standard [Munro, 1993 #1321]) in the absence or presence of the test compound in a buffer containing 50 mM HEPES/Tris HCL (pH 7.4), 5 mM MgCl2, 2.5 mM EGTA, and 0.1% BSA. Nonspecific binding was determined in the presence of 10 μM WIN 55212-2. After being incubated, the samples were filtered rapidly under vacuum through glass fiber filters (GF/B; Packard) presoaked with 0.3% PEI and rinsed several times with ice-cold buffer containing 50 mM Tris HCl (pH 7.4) and 0.5% BSA using a 96-sample cell harvester (Unifilter; Packard). The filters were dried then counted for radioactivity in a scintillation counter (Topcount; Packard) using a scintillation cocktail (Microscint 0; Packard). The results were expressed as a percentage of the inhibition of the control radioligand-specific binding. The reference standard compounds were tested in each experiment at several concentrations to obtain a competition curve from which its IC50 was calculated.

CB1 = CB1 (Homo sapiens (Human), UniProt P21554); experiment: CB1/CB2 Functional Assay (GTPγ[35S]), CB1 membranes; type: biochemical
Sequence of CB1 (P21554 whole entry): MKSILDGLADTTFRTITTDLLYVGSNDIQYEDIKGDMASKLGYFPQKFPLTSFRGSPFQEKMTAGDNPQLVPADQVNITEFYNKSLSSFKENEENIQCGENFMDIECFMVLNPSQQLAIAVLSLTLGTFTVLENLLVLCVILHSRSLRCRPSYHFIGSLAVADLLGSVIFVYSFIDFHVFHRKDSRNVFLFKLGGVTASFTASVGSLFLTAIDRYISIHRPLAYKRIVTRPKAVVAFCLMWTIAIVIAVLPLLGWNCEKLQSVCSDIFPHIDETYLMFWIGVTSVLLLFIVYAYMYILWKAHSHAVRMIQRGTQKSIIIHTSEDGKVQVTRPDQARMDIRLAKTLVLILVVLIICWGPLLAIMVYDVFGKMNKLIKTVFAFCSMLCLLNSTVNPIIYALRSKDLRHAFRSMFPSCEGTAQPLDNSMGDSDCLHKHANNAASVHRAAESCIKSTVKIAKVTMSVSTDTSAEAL
Method: A dose response curve was generated at eight concentrations in duplicate on CB1 and CB2 in light of reference agonists. The reference agonists for cannabinoid receptors was CP55,940. See FIGS. 1A, 1B, 2A, 2B, 3A and 3B.
Membranes (CB1, ES-110-MG or CB2, ES-111-MG) were mixed with GDP (volume:volume) and incubated for at least 15 min on ice. In parallel, GTPγ[^35S] were mixed with the beads (volume:volume) just before starting the reaction. The following reagents were successively added in the wells of an Optiplate: 50 μl of ligand, 20 μl of the membranes:GDP mix, 10 μl of assay buffer for agonist testing and 20 μl of the GTPγ[^35S]: beads mix. The plates were covered with a topseal, shaken on an orbital shaker for 2 min, and then incubated between 30 to 60 min. at room temperature. Then the plates were centrifuged for 10 min at 2000 rpm, incubated at room temperature between 1 to 4 hours and counted for 1 min with a PerkinElmer TopCount reader.

[1] = test system: spinal nerve ligation neuropathic pain model; experiment: Tactile allodynia in SNL neuropathic pain model (von Frey); type: in vivo, rat
Method: Adult, male Sprague Dawley (Harlan Sprague Dawley, Indianapolis, Ind.) rats weighing 120-150 gm were used in experimental procedures approved by the Animal Care and Use Committee of the M. D. Anderson Cancer Center, University of Texas. Animals were housed three per cage on a 12/12 hr light/dark cycle with water and food pellets available ad libitum.
All surgical procedures were performed under deep isoflurane anesthesia in 100% 02. The spinal nerve ligation (SNL) was performed as described previously. Kim, S. H., et al., An Experimental Model for Peripheral Neuropathy Produced by Segmental Spinal Nerve Ligation in the Rat, Pain, 1992, 50:355-63. Briefly, a midline incision above the lumbar spine exposed the left L6 transverse process. The process was then removed, the left L5 and L6 spinal nerves were isolated, and both nerves were tightly ligated with 6-0 silk. Prophylactic antibiotic (norfloxacin 5 mg/kg subcutaneously) and analgesic (buprenorphine, 0.2-0.5 mg/kg, or morphine, 2.5 mg/kg, given subcutaneously) were administered once daily for 3 days. All the experiments were conducted 10-14 days after spinal nerve ligation.
Rats were placed in a compartment with a wire mesh bottom and allowed to acclimate for a minimum of 30 min before testing. Mechanical sensitivity was assessed using a series of Von Frey filaments with logarithmic incremental stiffness (0.41, 0.70, 1.20, 2.00, 3.63, 5.50, 8.50, and 15.1 g) (Stoelting, Wood Dale, Ill.) as previously described, and 50% probability withdrawal thresholds were calculated with the up-down method. Chaplan, S. R., et al., Quantitative Assessment of Tactile Allodynia in the Rat Paw, J. Neurosci. Methods, 1994, 53:55-63; Dixon, W., The Up-and-Down Method for Small Samples, J. Am. Stat. Assoc., 1965, 60:967-78. In brief, beginning with the 2.0-g probe, filaments were applied to the plantar surface of a hind paw for 6-8 s, in an ascending or descending order after a negative or positive withdrawal response, respectively. Six consecutive responses from the first change in the response were used to calculate the withdrawal threshold (in grams). In cases where response thresholds fell outside the range of detection, 15.00 and 0.25 g were, respectively, assigned for continuous negative or positive responses to the limit of stimuli. The percent maximal possible effect (% MPE) was calculated as ([postdrug threshold−baseline threshold]/[cutoff threshold (15 g)−baseline threshold])×100.
Statistical analyses were carried out using BMDP 2007 (Statistical Solutions, Saugus, Mass., USA) and Graph Pad Prism (version 4.03; Graph Pad Software Inc., San Diego, Calif., USA). Data were analyzed using one-way ANOVA, repeated measures ANOVA, or t-test where appropriate. If ANOVA was significant, Tukey-Kramer post hoc analysis was used for multiple group comparison. Area under the curve (AUC) was calculated using the trapezoidal rule. The results are presented as mean±s.e. mean and were considered significant at P<0.05. Analyses of the dose-response curves and statistics were obtained using the pharmacologic software programs of Tallarida and Murray and included calculation of the ED50 values and their 95% confidence intervals (CI). Tallarida, R. J., et al., Manual of Pharmacologic Calculations With Computer Programs, Second ed. New York: Springer-Verlag, 1987.

[2] = CB2, test concentration 1.0E−05 (MD)

Sequence of CB2 (P34972 whole entry): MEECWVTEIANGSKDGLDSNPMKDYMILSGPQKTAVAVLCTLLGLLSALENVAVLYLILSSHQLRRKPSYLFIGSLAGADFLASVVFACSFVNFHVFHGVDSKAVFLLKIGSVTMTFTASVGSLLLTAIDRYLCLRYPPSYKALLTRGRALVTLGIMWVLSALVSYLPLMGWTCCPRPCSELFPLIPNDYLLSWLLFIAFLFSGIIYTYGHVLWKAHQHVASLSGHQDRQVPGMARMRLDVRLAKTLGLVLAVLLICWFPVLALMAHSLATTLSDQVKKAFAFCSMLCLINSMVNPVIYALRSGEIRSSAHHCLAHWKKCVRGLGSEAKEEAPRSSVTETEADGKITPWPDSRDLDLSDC

Compound: CC1(Cc2ccccc2)COc2cc(C(=O)N3CCCCC3)ccc21 (stereo not shown) [Example 3, 3-benzyl-3-methyl-2,3-dihydrobenzofuran-6-carboxylic acid-piperidine amide]
- % Inhibition of Control Specific Binding (CB2; [2]): 91%
- % of Control Specific Binding Mean (CB2; [2]): 9.4%
- % of Control Specific Binding 1st (CB2; CB2, test concentration 1.0E−05 (MD), first replicate): 13%
- % of Control Specific Binding 2nd (CB2; CB2, test concentration 1.0E−05 (MD), second replicate): 5.8%
- % Inhibition of Control Specific Binding CB2 (CB2; as repeated in Table 4): 91%
- Compound Function (CB1): Agonist
- % Activation Average (CB1; reference agonist CP55,940): 22.85%
- antiallodynic effect compared with 15 mg/kg AM1241 i.p. ([1]; 10 mg/kg i.p.): significantly (P<0.001) greater
- ED50 ([1]; Rattus norvegicus, ip, 0.5 h, i.p., at 30 min, SNL model, read-out: ED50 anti-allodynic effect (tactile allodynia)): 7.48 mg/kg
- effect of AM251 pretreatment (5 mg/kg i.p.) on antiallodynic effects of the compound ([1]; compound 10 mg/kg i.p., AM251 15 min prior): did not affect the antiallodynic effects; also recorded: had no effect
- effect of AM630 pretreatment (5 mg/kg i.p.) on antiallodynic effects of the compound ([1]; compound 10 mg/kg i.p., AM630 15 min prior): antagonized the effects; also recorded: reversed the antiallodynic effects; also recorded: significantly reversed
- effect of naloxone pretreatment (10 mg/kg i.p.) on antiallodynic activity ([1]; compound of Example 3 10 mg/kg i.p., naloxone 15 min prior): did not affect the antiallodynic effects; also recorded: had no effect
- effect on tactile allodynia ([1]; i.p. 5, 10, 15 mg/kg): attenuated tactile allodynia in a dose-related manner
